Assay results as given in EP3858357A1, “USE OF AZOLE COMPOUNDS TO STIMULATE THE IMMUNE SYSTEM AND AS INHIBITORS FOR S-PLA2GIB” (Diaccurate, priority 2020, dated 2021).

How the values were obtained:
[1] = biological target: sPLA2hGV (Homo sapiens, UniProt P39877); assay: Inhibition of sPLA2hGV enzymatic activity (method of Rouault et al., 2006); type: biochemical; settings: 3-300 µM tested; Figure 2B
[2] = biological target: T1, sPLA2hGX (Homo sapiens, UniProt O15496); assay: Inhibition of sPLA2hGX enzymatic activity (method of Rouault et al., 2006); type: biochemical; settings: 3-300 µM tested; Figure 2B
T1 sequence (O15496 43-165): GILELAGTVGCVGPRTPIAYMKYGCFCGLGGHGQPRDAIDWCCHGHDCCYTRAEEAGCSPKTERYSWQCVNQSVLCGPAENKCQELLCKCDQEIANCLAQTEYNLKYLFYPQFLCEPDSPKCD

[3] = biological target: binding between mPLA2R1 receptor and sPLA2hGIB (Homo sapiens, UniProt P04054); assay: AlphaLISA-based competition test of sPLA2hGIB binding to soluble HA-tagged mPLA2R1; settings: decrease of binding between mPLA2R1 and sPLA2hGIB; Figure 3B
Chain of binding between mPLA2R1 receptor and sPLA2hGIB (P04054 23-148): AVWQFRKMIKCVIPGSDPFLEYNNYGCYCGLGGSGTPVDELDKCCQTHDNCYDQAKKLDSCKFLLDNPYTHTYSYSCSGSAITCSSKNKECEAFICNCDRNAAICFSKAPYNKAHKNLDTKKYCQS
From the text: (§1) • Figure 1: Screening of the inhibition of sPLA2hGIB enzymatic activity by small molecules previously identified by in silico screening. 0% represents non-specific hydrolysis in the absence of sPLA2hGIB, and 100 % represents sPLA2hGIB activity with DMSO (1 %). […] The condition 'no hGIB' (0%) represents the non-specific hydrolysis of phospholipids present in E. coli membranes radio-labeled with [^3H]oleate. […] HA-tagged receptors are in the presence of sPLA2hGIB or sPLA2hGIIF, then in the presence of a specific biotinylated anti-sPLA2 antibody; "acceptor" beads are coupled to an anti-HA antibody (PerkinElmer) and "donor" beads are coupled to Streptavidine (PerkinElmer).
The inventors have developed and used an AlphaLISA®-based test (Figure 3A) capable of detecting binding between the soluble form of mPLA2R1 (which includes the whole extracellular part), and sPLA2hGIB. […]
HA-tagged receptors are in the presence of sPLA2 of interest, then in the presence of a specific biotinylated anti-sPLA2 antibody; "acceptor" beads are coupled to an anti-HA antibody (PerkinElmer) and "donor" beads are coupled to Streptavidine (PerkinElmer). The binding of a HA-tagged receptor and a sPLA2 of interest in solution, results in a proximity of donor and acceptor beads, allowing for energy transfer and the production of a light signal, which is then measured.

[4] = biological target: T2, sPLA2hGIIA (Homo sapiens, UniProt P14555); assay: Inhibition of sPLA2hGIIA enzymatic activity (method of Rouault et al., 2006); type: biochemical; settings: 3-300 µM tested; Figure 2B
T2 sequence (P14555 21-144): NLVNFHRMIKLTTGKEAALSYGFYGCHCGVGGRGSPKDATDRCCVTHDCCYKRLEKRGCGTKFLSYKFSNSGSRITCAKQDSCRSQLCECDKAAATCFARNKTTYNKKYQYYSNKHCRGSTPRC

[5] = biological target: sPLA2hGIB (Homo sapiens, UniProt P04054); assay: Inhibition of sPLA2hGIB enzymatic activity, [3H]oleate-labelled E. coli membranes (method of Rouault et al., 2006); type: biochemical; settings: sPLA2hGIB (2 pM) pre-incubated with 10, 30, 100, 300 µM; Figure 2A
Chain of sPLA2hGIB (P04054 23-148): as the sequence (P04054 23-148) above
From the text: as §1
The condition 'no hGIB' (0%) represents the non-specific hydrolysis of phospholipids present in E. coli membranes radio-labeled with [^3H]oleate.

Chain of sPLA2hGV (P39877 21-138): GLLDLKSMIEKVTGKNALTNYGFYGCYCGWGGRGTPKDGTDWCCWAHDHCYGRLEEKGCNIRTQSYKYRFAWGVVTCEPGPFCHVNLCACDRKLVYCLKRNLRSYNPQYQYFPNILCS

CC(C)N1CCN(c2ccc(OCC3COC(Cn4cncn4)(c4ccc(Cl)cc4Cl)O3)cc2)CC1 [Terconazole, 1-{[(2S,4S)-2-(2,4-dichlorophenyl)-4-{[p-(4-isopropyl-1-piperazinyl)phenoxy]methyl}-1,3-dioxolan-2-yl]methyl}-1H-1,2,4-azole]
IC50 [1]: > 300 µM | IC50 [2]: ~150 µM | IC50 [3]: ~100 µM | IC50 [4]: > 300 µM | IC50 [5]: 100 to 150 µM
